Results as given in article PMC11845477, “Exploring the principles behind antibiotics with limited resistance” (Nature Communications, 2025).
Where a SMILES comes first, the peptide text is derived from it. Bridges are numbered along the chain shown (N, C = ends). [ ]: non-standard residue; d: D form. The star is where a group is joined. X1 = NC[C@@H](CC(=O)*)c1cccc(Cl)c1; Dab = NCC[C@H](N)C(=O)O; Dap = NC[C@H](N)C(=O)O

Experiments:
[1] = tested on: P. aeruginosa ATCC BAA-3107 (SEN) and P. aeruginosa LESB58 (MDR); assay: Frequency-of-resistance (FoR) assay, relative MIC of mutants; type: cell-based, Pseudomonas aeruginosa
In short: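 About 10^10 cells, grown overnight in MHB at 37 °C and washed, were plated on agar containing antibiotic at concentrations the strain is susceptible to, for 48 h at 37 °C. Ten colonies from the highest concentration were MIC-tested; relative MIC = MICevolved/MICancestor.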

[2] = tested on: P. aeruginosa ATCC BAA-3107 (SEN) and P. aeruginosa LESB58 (MDR); assay: Adaptive laboratory evolution (ALE), relative MIC of evolved lines; type: cell-based, Pseudomonas aeruginosa
In short: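 Ten parallel populations per antibiotic–ancestor pair were evolved in MHB at 37 °C, starting near 50% growth-inhibiting drug. Every 72 h they were passaged into 0.5–2.5× increasing concentrations, keeping the highest-drug well with OD600 > 0.2.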

CC(C)C[C@@H]1NC(=O)[C@@H](Cc2ccccc2)NC(=O)[C@H](CCN)NC(=O)[C@@H](NC(=O)[C@H](CN)NC(=O)[C@@H](NC(=O)C[C@H](CN)c2cccc(Cl)c2)[C@@H](C)O)CCNC(=O)[C@H]([C@@H](C)O)NC(=O)[C@H](CCN)NC(=O)[C@H](CCN)NC1=O [SPR206] (X1-T[Dap][Dab][Dab][dF]L[Dab][Dab]T; lactam 3-C (inferred); N-terminus assumed)
16: Relative MIC ([1]; P. aeruginosa LESB 58 (PA-MDR), evolved line 2, evolved vs ancestor) | Relative MIC ([1]; P. aeruginosa LESB 58 (PA-MDR), evolved line 3, evolved vs ancestor) | Relative MIC ([2]; ALE, P. aeruginosa ATCC BAA 3107 (PA-SEN), evolved line 1) | Relative MIC ([2]; ALE, P. aeruginosa ATCC BAA 3107 (PA-SEN), evolved line 4) | Relative MIC ([2]; ALE, P. aeruginosa ATCC BAA 3107 (PA-SEN), evolved line 5) | Relative MIC ([2]; PA-MDR (LESB 58), evolved line 1, evolved vs ancestor) | Relative MIC ([2]; PA-MDR (LESB 58), evolved line 2, evolved vs ancestor) | Relative MIC ([2]; PA-MDR (LESB 58), evolved line 3, evolved vs ancestor) | Relative MIC ([2]; PA-MDR (LESB 58), evolved line 5, evolved vs ancestor) | Relative MIC ([2]; PA-MDR (LESB 58), evolved line 7, evolved vs ancestor) | Relative MIC ([2]; PA-MDR (LESB 58), evolved line 9, evolved vs ancestor) | Relative MIC ([2]; PA-SEN (ATCC BAA 3107), evolved line 1, evolved vs ancestor) | Relative MIC ([2]; PA-SEN (ATCC BAA 3107), evolved line 4, evolved vs ancestor) | Relative MIC ([2]; PA-SEN (ATCC BAA 3107), evolved line 5, evolved vs ancestor) | Relative MIC ([2]; Pseudomonas aeruginosa ATCC BAA 3107 (PA-SEN), evolved line 1) | Relative MIC ([2]; Pseudomonas aeruginosa ATCC BAA 3107 (PA-SEN), evolved line 4) | Relative MIC ([2]; Pseudomonas aeruginosa ATCC BAA 3107 (PA-SEN), evolved line 5) | Relative MIC ([2]; Pseudomonas aeruginosa LESB 58 (PA-MDR), evolved line 1) | Relative MIC ([2]; Pseudomonas aeruginosa LESB 58 (PA-MDR), evolved line 2) | Relative MIC ([2]; Pseudomonas aeruginosa LESB 58 (PA-MDR), evolved line 3) | Relative MIC ([2]; Pseudomonas aeruginosa LESB 58 (PA-MDR), evolved line 5) | Relative MIC ([2]; Pseudomonas aeruginosa LESB 58 (PA-MDR), evolved line 7) | Relative MIC ([2]; Pseudomonas aeruginosa LESB 58 (PA-MDR), evolved line 9)
1.505 log10: Relative MIC (log10) ([2]; PA-MDR (Pseudomonas aeruginosa LESB 58), evolved line 6) | Relative MIC (log10) ([2]; PA-MDR, Pseudomonas aeruginosa LESB 58, evolved line 10) | Relative MIC (log10) ([2]; PA-SEN, Pseudomonas aeruginosa ATCC BAA 3107, evolved line 2) | Relative MIC (log10) ([2]; PA-SEN, Pseudomonas aeruginosa ATCC BAA 3107, evolved line 9)
1 µg/mL: MIC of evolved line ([1]; P. aeruginosa ATCC BAA 3107 (PA-SEN), evolved line 1) | MIC of evolved line ([1]; P. aeruginosa ATCC BAA 3107 (PA-SEN), evolved line 2) | MIC of evolved line ([1]; P. aeruginosa ATCC BAA 3107 (PA-SEN), evolved line 3)
32: Relative MIC ([1]; P. aeruginosa LESB 58 (PA-MDR), evolved line 1, evolved vs ancestor) | Relative MIC ([2]; ALE, P. aeruginosa ATCC BAA 3107 (PA-SEN), evolved line 2) | Relative MIC ([2]; ALE, P. aeruginosa ATCC BAA 3107 (PA-SEN), evolved line 9) | Relative MIC ([2]; PA-MDR (LESB 58), evolved line 6, evolved vs ancestor) | Relative MIC ([2]; PA-MDR (LESB 58), evolved line 10, evolved vs ancestor) | Relative MIC ([2]; PA-SEN (ATCC BAA 3107), evolved line 2, evolved vs ancestor) | Relative MIC ([2]; PA-SEN (ATCC BAA 3107), evolved line 9, evolved vs ancestor) | Relative MIC ([2]; Pseudomonas aeruginosa ATCC BAA 3107 (PA-SEN), evolved line 2) | Relative MIC ([2]; Pseudomonas aeruginosa ATCC BAA 3107 (PA-SEN), evolved line 9) | Relative MIC ([2]; Pseudomonas aeruginosa LESB 58 (PA-MDR), evolved line 6) | Relative MIC ([2]; Pseudomonas aeruginosa LESB 58 (PA-MDR), evolved line 10)
128 µg/mL: MIC of evolved line ([1]; P. aeruginosa LESB 58 (PA-MDR), evolved line 1) | MIC of evolved line ([2]; PA-MDR (LESB 58), evolved line 6) | MIC of evolved line ([2]; PA-MDR (LESB 58), evolved line 10)
2: Relative MIC ([2]; ALE, P. aeruginosa ATCC BAA 3107 (PA-SEN), evolved line 10) | Relative MIC ([2]; PA-SEN (ATCC BAA 3107), evolved line 10, evolved vs ancestor) | Relative MIC ([2]; Pseudomonas aeruginosa ATCC BAA 3107 (PA-SEN), evolved line 10)
32 µg/mL: MIC of evolved line ([2]; PA-MDR (LESB 58), evolved line 4) | MIC of evolved line ([2]; PA-SEN (ATCC BAA 3107), evolved line 2) | MIC of evolved line ([2]; PA-SEN (ATCC BAA 3107), evolved line 9)
2 µg/mL: MIC of evolved line ([2]; PA-SEN (ATCC BAA 3107), evolved line 10)
4: Relative MIC ([2]; PA-MDR (LESB 58), evolved line 8, evolved vs ancestor) | Relative MIC ([2]; Pseudomonas aeruginosa LESB 58 (PA-MDR), evolved line 8)
16 µg/mL: MIC of evolved line ([2]; PA-MDR (LESB 58), evolved line 8) | MIC of evolved line ([2]; PA-SEN (ATCC BAA 3107), evolved line 4) | MIC of evolved line ([2]; PA-SEN (ATCC BAA 3107), evolved line 5) | MIC of evolved line ([2]; PA-SEN ATCC BAA 3107, evolved line 1)
8: Relative MIC ([2]; ALE, P. aeruginosa ATCC BAA 3107 (PA-SEN), evolved line 8) | Relative MIC ([2]; PA-MDR (LESB 58), evolved line 4, evolved vs ancestor) | Relative MIC ([2]; PA-SEN (ATCC BAA 3107), evolved line 8, evolved vs ancestor) | Relative MIC ([2]; Pseudomonas aeruginosa ATCC BAA 3107 (PA-SEN), evolved line 8) | Relative MIC ([2]; Pseudomonas aeruginosa LESB 58 (PA-MDR), evolved line 4)
1: Relative MIC ([1]; FoR assay, Pseudomonas aeruginosa ATCC BAA 3107 (PA-SEN), evolved line 1) | Relative MIC ([1]; FoR assay, Pseudomonas aeruginosa ATCC BAA 3107 (PA-SEN), evolved line 2) | Relative MIC ([1]; FoR assay, Pseudomonas aeruginosa ATCC BAA 3107 (PA-SEN), evolved line 3) | Relative MIC ([1]; P. aeruginosa ATCC BAA 3107 (PA-SEN), evolved line 1, evolved vs ancestor) | Relative MIC ([1]; P. aeruginosa ATCC BAA 3107 (PA-SEN), evolved line 2, evolved vs ancestor) | Relative MIC ([1]; P. aeruginosa ATCC BAA 3107 (PA-SEN), evolved line 3, evolved vs ancestor)
8 µg/mL: MIC of evolved line ([2]; PA-SEN (ATCC BAA 3107), evolved line 8)
1.204 log10: Relative MIC (log10) ([2]; PA-MDR (Pseudomonas aeruginosa LESB 58), evolved line 1) | Relative MIC (log10) ([2]; PA-MDR, Pseudomonas aeruginosa LESB 58, evolved line 9) | Relative MIC (log10) ([2]; PA-MDR, Pseudomonas aeruginosa LESB 58, evolved line 3) | Relative MIC (log10) ([2]; PA-SEN, Pseudomonas aeruginosa ATCC BAA 3107, evolved line 1) | Relative MIC (log10) ([2]; PA-SEN, Pseudomonas aeruginosa ATCC BAA 3107, evolved line 4) | Relative MIC (log10) ([2]; PA-SEN, Pseudomonas aeruginosa ATCC BAA 3107, evolved line 5)
64 µg/mL: MIC of evolved line ([1]; P. aeruginosa LESB 58 (PA-MDR), evolved line 2) | MIC of evolved line ([1]; P. aeruginosa LESB 58 (PA-MDR), evolved line 3) | MIC of evolved line ([2]; PA-MDR (LESB 58), evolved line 5) | MIC of evolved line ([2]; PA-MDR (LESB 58), evolved line 7) | MIC of evolved line ([2]; PA-MDR (LESB 58), evolved line 9) | MIC of evolved line ([2]; PA-MDR LESB 58, evolved line 1) | MIC of evolved line ([2]; PA-MDR LESB 58, evolved line 2) | MIC of evolved line ([2]; PA-MDR LESB 58, evolved line 3)
